Measured values published in patent publication US20190262300A1, “COMPOSITION FOR PREVENTING OR TREATING PSORIASIS CONTAINING MONOACETYL DIACYLGLYCEROL COMPOUND” (ENZYCHEM LIFESCIENCES CORPORATION, priority 2016, published 2019).

What was measured:
Type in all cases: in vivo, Balb/c mice
[1] = system: psoriasis-induced mouse models (IMQ); experiment: H&E histology of back skin (IMQ-induced chronic inflammatory skin disorder); details: PLAG 250 mg/kg/day oral day 0 to day 4 with Aldara cream 40 mg/day
Description: (§1) In order to confirm the preventive and therapeutic effects of psoriasis by 1-palmitoyl-2-linoleoyl-3-acetylglycerol (EC-18 or PLAG), imiquimod (hereinafter, referred to as IMQ), which is commonly used to induce skin inflammation i.e., psoriasis, such as infiltration of immune cells, epidermal hyperplasia, etc., was used as a ligand for TLR7 and TLR8 to carry out an experiment using psoriasis-induced mouse models. As an experiment model, 6 to 8-week-old female Balb/c-based mice (KOATECH, Pyeongtaek, Korea) were maintained under a specific pathogen free (SPF) environment and used. PLAG (ENZYCHEM LIFESCIENCES, Korea) was prepared before in vivo or in vitro treatment. Also, statistical analysis was performed using a paired t-test.
(§2) Mice were randomly divided into three groups: control group, psoriasis-induced group, and PLAG group. As the IMQ, Aldara cream (3M Health Care Limited, UK) containing 5% of IMQ was used.
For 5 days from day 0 to day 4, the control group was treated with vaseline (Unilever, UK) and PBS, the psoriasis-induced group was treated with Aldara cream and PBS, and the PLAG group was treated with Aldara cream and PLAG. Vaseline and Aldara cream were applied to the back of mice at a dose of 40 mg/day, and PBS and PLAG were orally administered at a dose of 250 mg/kg/day. On Day 5, which was the 6th day, the mice were sacrificed.
The thickness of the back skin of the mice of Example 1 was stained with the following H&E (Hematoxylin and Eosin) staining method, and histologically observed and evaluated under an optical microscope (Olympus, Tokyo, Japan) 5. The H&E staining method is as follows:
The back skin tissue of the mice was fixed in a 10% buffered formalin solution for 24 hours, embedded in paraffin and cut into 4 μm-thick sections. After removing paraffin and rehydrating the sections, the sections were stained with hematoxylin and eosin.

IL-17 = experiment: Immunohistochemical staining of IL-17 expression in IMQ-induced psoriatic skin; details: PLAG 250 mg/kg/day oral day 0 to day 4 with Aldara cream 40 mg/day; back skin
Description: as §1, §2
(§3) For 5 days from day 0 to day 4, the control group was treated with vaseline (Unilever, UK) and PBS, the psoriasis-induced group was treated with Aldara cream and PBS, and the PLAG group was treated with Aldara cream and PLAG. Vaseline and Aldara cream were applied to the back of mice at a dose of 40 mg/day, and PBS and PLAG were orally administered at a dose of 250 mg/kg/day. On Day 5, which was the 6th day, the mice were sacrificed. […]

[2] = system: psoriasis-induced mouse models (IMQ); experiment: Keratinization and thickness of back skin of IMQ-induced psoriasis mice; details: vs psoriasis-induced group
Description: as §1
Mice were randomly divided into three groups: control group, psoriasis-induced group, and PLAG group. As the IMQ, Aldara cream (3M Health Care Limited, UK) containing 5% of IMQ was used. […]
In order to investigate whether PLAG prevents the progression of psoriasis, psoriasis was induced using IMQ cream (Aldara cream) as in Example 1. […] Subsequently, for the measurement of thickness of back skin, the back skin was removed, and the thickness of the removed back skin was measured using a caliper. The thickness of the measured back skin is shown in the graph of FIG. 3(B).

[3] = system: psoriasis-induced mouse models (IMQ); experiment: Size and weight of spleen in IMQ-induced psoriasis mice; details: PLAG 250 mg/kg/day oral day 0 to day 4 with Aldara cream 40 mg/day, vs control group
Description: as §1, §2
For 5 days from day 0 to day 4, the control group was treated with vaseline (Unilever, UK) and PBS, the psoriasis-induced group was treated with Aldara cream and PBS, and the PLAG group was treated with Aldara cream and PLAG. […]
The size of the spleen removed from the mice of Example 1 was measured using a ruler, and the weight was measured using a scale.

[4] = system: neutrophil recruitment in the back skin; experiment: Immunohistochemical staining of neutrophil recruitment in back skin; details: PLAG 250 mg/kg/day oral day 0 to day 4 with Aldara cream 40 mg/day
Description: as §1, §2, §3

For `CCCCC/C=C\C/C=C\CCCCCCCC(=O)OC(COC(C)=O)COC(=O)CCCCCCCCCCCCCCC` (racemic) [PLAG, 1-palmitoyl-2-linoleoyl-3-acetyl-rac-glycerol], the “hair follicles (H&E)” value [1] was “present as in the control group”, the “neutrophils between the stratum corneum (H&E)” value [1] was “not found” and the “thicknesses of the stratum corneum and the epidermis (H&E)” value ([1]; vs psoriasis-induced group) was “remarkably reduced”. The “IL-17 expression in the skin blood vessels (immunohistochemistry)” value (IL-17) was “significantly inhibited”, the “thickness of the back skin (caliper)” value ([2]; PLAG 250 mg/kg/day oral day 0 to day 4 with Aldara cream 40 mg/day, day 5) was “significantly decreased” and the “keratosis on the back of the mice” value ([2]; PLAG 250 mg/kg/day oral day 0 to day 4 with Aldara cream (5% IMQ) 40 mg/day, photographed day 5) was “remarkably alleviated”. The size of spleen ([3]; ruler) was “increased compared to the control group”, the weight of spleen ([3]; scale) was “maintained the same as the weight of spleen of the control group” and the “level of neutrophil recruitment in back skin (NIMP-R14 immunohistochemistry)” value [4] was “significantly lower than that in the psoriasis-induced group”.
